We go through 4 compounds from ChEMBL document CHEMBL1158791, “Grayanane diterpenoids from the flowers of Rhododendron molle with cytotoxic activity against a Spodoptera frugiperda cell line” (J Nat Prod, 2005).

≈ marks a conversion by molar mass, not a printed value.

What is called IC50 is the concentration that gives 50% inhibition. Lower therefore signals greater potency in that assay.

A short description of this experiment: Cytotoxicity against Spodoptera frugiperda Sf9 cells after 48 hrs. As to conditions: Sf9, 48 h. The class given is functional, cell-based.

Compound `C/C=C(\C)C(=O)O[C@H]1C[C@@H](OC(C)=O)[C@@]2(C(=O)OC)CO[C@H]3[C@@H](O)[C@@](C)([C@]45O[C@@]4(C)[C@@H]4C[C@H]5O[C@@H]5OC=C[C@@]54O)[C@H]4[C@]1(CO[C@]4(O)C(=O)OC)[C@@H]32` [AZADIRACHTIN A] yielded an IC50 of 20.3 µg/mL (≈ 28.2 µM).
The compound `CC1(C)[C@H]2O[C@H]2[C@H]2[C@](C)(O)[C@@H]3CC[C@@H]4[C@H](O)[C@@]3(C[C@@H](O)[C@@]21O)C[C@@]4(C)O` [RHODOJAPONIN] showed an IC50 of 12.6 µg/mL (≈ 34.2 µM).
`C=C1[C@@H]2[C@H](OC)[C@H](O)C(C)(C)[C@@]2(O)[C@H](O)C[C@]23C[C@@](C)(O)[C@H](CC[C@@H]12)[C@H]3O` [RHODOMOLIN A]: the IC50 stood at 37.8 µg/mL (≈ 98.8 µM).
As for `C=C1[C@@H]2[C@H](O)[C@H](O)C(C)(C)[C@@]2(O)[C@H](O)C[C@]23C[C@@](C)(O)[C@H](CC[C@@H]12)[C@H]3OC(C)=O` [RHODOMOLIN B], the figure is 25.6 µg/mL (≈ 62.4 µM).
